Test results taken from patent US8835467B2, “SIR2 regulation” (Albert Einstein College of Medicine of Yeshiva University, priority 2003, dated 2014).

Assays:
[1] = test system: Sir2-dependent transcriptional silencing at telomeres; assay: Telomeric reporter gene silencing, serial dilution spot assay; format: cell-based, yeast
Method: (§1) The photographs were taken after 2 to 3 days incubation. […] Isogenic strains UCC4562 (DOT1) and UCC4554 (dot1Δ) (Singer et al., 1998) are shown in each panel (top and bottom rows, respectively). […] The phenotype of strain CCFY10028 (top row) is compared to an isogenic sir2 derivative (bottom row). The sir2 deletion strain was generated by PCR-mediated gene disruption using a Nat-MX selectable marker (Tong et al., 2004).
(§2) The deletion strains were generated by PCR-mediated gene disruption using a Nat-MX selectable marker (Tong et al., 2004). Silencing at TEL-VR::URA3 is reported by survival on FOA-containing media and at HMR::TRP1 is detected by reduced growth on media lacking tryptophan.
We examined the effect of isonicotinamide on the expression of reporter genes integrated at each of the chromosomal loci that are subject to Sir2-dependent transcriptional silencing. Silencing of a telomeric URA3 gene (TEL-VIIL-URA3) confers resistance to 5-fluoroorotic acid (5-FOA). […] In this strain, silencing is reduced by dispersion of the Sir proteins from the telomeres (van Leeuwen et al., 2002).

Yeast Sir2 = Yeast Sir2 (Saccharomyces cerevisiae, UniProt P06700); assay: Sir2 catalyzed base exchange with H4 N-terminal peptide; format: biochemical
Sequence of Yeast Sir2 (P06700 whole entry): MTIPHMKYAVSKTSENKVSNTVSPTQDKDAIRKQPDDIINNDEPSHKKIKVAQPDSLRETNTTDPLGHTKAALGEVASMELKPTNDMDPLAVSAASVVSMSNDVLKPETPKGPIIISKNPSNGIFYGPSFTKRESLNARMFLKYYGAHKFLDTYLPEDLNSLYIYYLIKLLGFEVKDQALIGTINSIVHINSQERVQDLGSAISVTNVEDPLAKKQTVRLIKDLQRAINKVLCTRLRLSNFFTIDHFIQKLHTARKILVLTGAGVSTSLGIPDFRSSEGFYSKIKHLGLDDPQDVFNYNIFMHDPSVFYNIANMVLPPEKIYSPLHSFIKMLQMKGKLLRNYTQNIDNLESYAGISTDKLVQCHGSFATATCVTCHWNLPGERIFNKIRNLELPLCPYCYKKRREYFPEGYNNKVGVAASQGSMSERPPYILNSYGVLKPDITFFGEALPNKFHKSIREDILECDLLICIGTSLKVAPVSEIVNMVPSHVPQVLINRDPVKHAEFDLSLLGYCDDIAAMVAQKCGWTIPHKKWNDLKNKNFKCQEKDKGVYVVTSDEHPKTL
Method: Measurements were performed by methods described in Sauve and Schramm (2003) with the H4N-terminal peptide (AGG(AcK)GG(AcK)GMG(AcK)VGA(AcK)RHSC) (Imai et al., 2000) as substrate.

[2] = biological target: T1, Mouse SIR2 enzyme (SIR2α) (Mus musculus, UniProt Q923E4); assay: SIR2 deacetylation assay (p53 peptide, HPLC of ADPR and 3′-O-acetyl-ADPR); format: biochemical
T1 construct: purchased Upstate Group
T1 sequence (Q923E4 1-737): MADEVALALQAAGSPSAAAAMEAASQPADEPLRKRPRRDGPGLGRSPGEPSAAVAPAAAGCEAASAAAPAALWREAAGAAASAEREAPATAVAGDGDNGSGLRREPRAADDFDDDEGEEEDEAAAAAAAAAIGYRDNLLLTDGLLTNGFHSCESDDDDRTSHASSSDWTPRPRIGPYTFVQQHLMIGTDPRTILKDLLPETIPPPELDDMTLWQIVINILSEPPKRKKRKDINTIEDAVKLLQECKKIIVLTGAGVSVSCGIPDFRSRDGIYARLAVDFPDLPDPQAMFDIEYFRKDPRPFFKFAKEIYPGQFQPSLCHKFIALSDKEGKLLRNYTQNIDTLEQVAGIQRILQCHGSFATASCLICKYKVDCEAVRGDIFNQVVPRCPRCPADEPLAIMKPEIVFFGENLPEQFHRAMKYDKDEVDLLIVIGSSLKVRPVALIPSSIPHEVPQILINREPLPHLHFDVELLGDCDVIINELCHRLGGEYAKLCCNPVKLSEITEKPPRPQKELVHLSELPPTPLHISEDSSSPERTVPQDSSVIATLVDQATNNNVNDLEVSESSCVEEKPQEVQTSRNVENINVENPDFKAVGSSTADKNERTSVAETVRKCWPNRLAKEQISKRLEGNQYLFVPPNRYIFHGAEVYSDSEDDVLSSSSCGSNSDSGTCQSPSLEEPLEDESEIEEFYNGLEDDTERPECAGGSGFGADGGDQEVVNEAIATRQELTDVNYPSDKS
Method: (§3) After 2 hours, aliquots of 10 μL removed at 0, 30, 60, 90 and 120 min. Each aliquot was combined with 50 μL 50 mM ammonium acetate pH 5.0 to quench and assayed by HPLC for deacetylation products and NAD^+. The chromatograms (260 nm) were obtained using 50 mM ammonium acetate pH 5.0 as eluant on a semi-preparative Waters C-18 column (2.0 mL/min flow rate). Peaks for ADPR and 3′-O-Acetyl-ADPR were quantified by integration. The peak for NAD^+ was collected and radiation counted.
(§4) Reactions were as above but base reactions contained 5 mM of pyrazinamide, isonicotinamide, thionicotinamide, or benzamide. Reactions were carried out (2 hours for AF2 and yeast enzymes and 3 hours for mouse enzyme) at 37° C. and quenched by addition of 80 μL 50 mM ammonium acetate pH 5.0. Product formation was quantified by HPLC. […] Rates were compared with controls lacking added base.

Yeast SIR2p = biological target: T2, Yeast SIR2p (Saccharomyces cerevisiae, UniProt P06700); assay: as above; format: biochemical
T2 construct: made in house
T2 sequence (P06700 whole entry): as the sequence (P06700 whole entry) above
Method: as §3, §4

Bacterial SIR2Af2 = biological target: T3, Bacterial SIR2Af2 (Archaeoglobus fulgidus, UniProt O30124); assay: as above; format: biochemical, Archeaglobus fulgidus
T3 construct: made in house
T3 sequence (O30124 1-253): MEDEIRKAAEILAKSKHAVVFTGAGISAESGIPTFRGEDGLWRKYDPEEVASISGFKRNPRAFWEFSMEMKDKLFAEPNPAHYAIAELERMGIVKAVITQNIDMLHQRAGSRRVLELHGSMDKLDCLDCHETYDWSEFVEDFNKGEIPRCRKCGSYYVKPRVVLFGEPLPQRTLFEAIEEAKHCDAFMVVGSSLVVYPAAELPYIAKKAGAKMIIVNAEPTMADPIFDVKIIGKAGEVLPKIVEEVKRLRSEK
Method: as §3, with “counted. […] Plots of deacetylation rate versus nicotinamide were fit to the equations described in the text.” for “counted.”
Reactions were as above but base reactions contained 5 mM of pyrazinamide, isonicotinamide, thionicotinamide, or benzamide. Reactions were carried out (2 hours for AF2 and yeast enzymes and 3 hours for mouse enzyme) at 37° C. and quenched by addition of 80 μL 50 mM ammonium acetate pH 5.0. Product formation was quantified by HPLC. Thionicotinamide-NAD^+ was synthesized by CD38. Rates were compared with controls lacking added base.

[3] = test system: Sir2-dependent transcriptional silencing at the silent mating-type loci (HMR, HML); assay: Silent mating-type locus reporter silencing, spot assay; format: cell-based, yeast
Method: as §1, §2
The effect of isonicotinamide on Sir2 activity at the silent mating-type loci was measured in an HMR: TRP1 strain by growth on medium lacking tryptophan (FIG. 8b). Silencing of TRP1 decreases growth on Trp^− media.

For `NC(=O)c1ccncc1` [Isonicotinamide], the “increase in colony growth on FOA-containing medium” value ([1]; TEL-VIIL-URA3, DOT1 strain UCC4562, 25 mM isonicotinamide) was ~10 fold, the “enhanced silencing of telomeric reporter (growth on FOA)” value ([1]; TEL-VIIL-URA3, dot1Δ strain UCC4554, 25 mM isonicotinamide) was > 10^3 fold and the “growth phenotype on FOA medium” value ([1]; TEL-VIIL-URA3, 25 mM isonicotinamide added to medium with 5 mM nicotinamide) was “intermediate growth phenotype”. The “increase in colony growth on FOA-containing medium” value ([1]; TEL-VR-URA3, pnc1Δ strain, 25 mM isonicotinamide) was > 10^4 fold, the “colony survival on non-selective medium” value ([1]; YPD control medium, 25 mM isonicotinamide) was “no effect” and the “silencing of ADE2 integrated at TEL-VR” value ([1]; data not shown) was “increased”. For the same compound, the “effect on telomeric reporter gene” value ([1]; npt1Δ strain, 25 mM isonicotinamide) was “enhances the expression of a telomeric reporter gene”, the “effect on base exchange” value (Yeast Sir2; 125 μM [carbonyl-14C]nicotinamide, increasing isonicotinamide) was “Base exchange is inhibited” and the Ki (Yeast Sir2; read-out: Ki for isonicotinamide) was 60 mM. It also gave an inhibition at 5000 µM [2] of 18%, an inhibition at 5000 µM (Yeast SIR2p) of 0% and an inhibition at 42000 µM (Yeast SIR2p; pH 7.6) of 5%. The inhibition at 5000 µM (Bacterial SIR2Af2) was 4%, the “Sir2 activity at HML” value ([3]; HML::URA3 strains UCC3515 and UCC4574, FOA-containing medium, data not shown) was “increased Sir2 activity at HML” and the “growth phenotype of isogenic sir2Δ strain” value ([3]; HMR::TRP1, Trp− medium) was “Neither compound altered the growth phenotype”. For the same compound, the “reduction in growth on Trp− medium” value ([3]; HMR::TRP1, pnc1Δ strain, 25 mM isonicotinamide) was 10^3 fold.
